Converted amounts (≈) assume the structure as drawn.
Tests used:
Format in all cases: functional
Escherichia coli [1] = experiment: Antimicrobial activity against Escherichia coli isolate 7010738 with AmpC beta-lactamase H296P mutation
Escherichia coli [2] = experiment: Antimicrobial activity against Escherichia coli isolate 7014517 with AmpC beta-lactamase 295 Ins LAA mutation
Escherichia coli [3] = experiment: Antimicrobial activity against AmpC producing Escherichia coli Top10 isolate 25922
Escherichia coli [4] = experiment: Antimicrobial activity against AmpC producing Escherichia coli Top10 isolate 8009162
Escherichia coli [5] = experiment: Antimicrobial activity against Escherichia coli isolate 8009162 with AmpC beta-lactamase A292V mutation
Escherichia coli [6] = experiment: Antimicrobial activity against Escherichia coli isolate 8009989 with AmpC beta-lactamase H296P mutation
Escherichia coli [7] = experiment: Antimicrobial activity against Escherichia coli isolate 8009389 with AmpC beta-lactamase H296P mutation
Escherichia coli [8] = experiment: Antimicrobial activity against AmpC producing Escherichia coli Top10 isolate 7014517
Escherichia coli [9] = experiment: Antimicrobial activity against Escherichia coli isolate 8009162 AmpC with A292V mutation
Escherichia coli [10] = experiment: Antimicrobial activity against Escherichia coli isolate 7014517 AmpC with LAA insertion at position 295
Escherichia coli [11] = experiment: Antimicrobial activity against Escherichia coli isolate 7008211 with AmpC beta-lactamase H296P mutation
Escherichia coli [12] = experiment: Antimicrobial activity against Escherichia coli isolate 5000869 with AmpC beta-lactamase H296P mutation
Escherichia coli [13] = experiment: Antimicrobial activity against Escherichia coli isolate 7008153 with AmpC beta-lactamase H296P mutation
Escherichia coli [14] = experiment: Antimicrobial activity against wild-type AmpC producing Escherichia coli ATCC 25922
Escherichia coli [15] = experiment: Antimicrobial activity against Escherichia coli isolate 4009273 with AmpC beta-lactamase S287N mutation
Escherichia coli [16] = experiment: Antimicrobial activity against Escherichia coli isolate 7008710 with AmpC beta-lactamase S287N mutation
Escherichia coli [17] = experiment: Antimicrobial activity against Escherichia coli isolate 7001178 with AmpC beta-lactamase S287N mutation
Escherichia coli [18] = experiment: Antimicrobial activity against Escherichia coli Top10

Structure (SMILES) | MIC (Escherichia coli [1]) [µg/mL] | MIC (Escherichia coli [2]) [µg/mL] | MIC (Escherichia coli [3]) [µg/mL] | MIC (Escherichia coli [4]) [µg/mL] | MIC (Escherichia coli [5]) [µg/mL] | MIC (Escherichia coli [6]) [µg/mL] | MIC (Escherichia coli [7]) [µg/mL] | MIC (Escherichia coli [8]) [µg/mL] | MIC (Escherichia coli [9]) [µg/mL] | MIC (Escherichia coli [10]) [µg/mL] | MIC (Escherichia coli [11]) [µg/mL] | MIC (Escherichia coli [12]) [µg/mL] | MIC (Escherichia coli [13]) [µg/mL] | MIC (Escherichia coli [14]) [µg/mL] | MIC (Escherichia coli [15]) [µg/mL] | MIC (Escherichia coli [16]) [µg/mL] | MIC (Escherichia coli [17]) [µg/mL] | MIC (Escherichia coli [18]) [µg/mL]
CO/N=C(\C(=O)N[C@@H]1C(=O)N2C(C(=O)[O-])=C(C[N+]3(C)CCCC3)CS[C@H]12)c1csc(N)n1 [CEFEPIME] | 8 (≈ 16.6 µM) | 8 (≈ 16.6 µM) | 0.06 (≈ 0.125 µM) | 0.75 (≈ 1.56 µM) | 0.75 (≈ 1.56 µM) | 8 (≈ 16.6 µM) | 16 (≈ 33.3 µM) | 4 (≈ 8.32 µM) | 0.75 (≈ 1.56 µM) | 8 (≈ 16.6 µM) | 16 (≈ 33.3 µM) | 4 (≈ 8.32 µM) | 16 (≈ 33.3 µM) | < 0.06 | 4 (≈ 8.32 µM) | 8 (≈ 16.6 µM) | 2 (≈ 4.16 µM) | < 0.06
CO/N=C(\C(=O)N[C@@H]1C(=O)N2C(C(=O)O)=C(COC(C)=O)CS[C@H]12)c1csc(N)n1 [CEFOTAXIME] | 8 (≈ 17.6 µM) | 16 (≈ 35.1 µM) | 0.75 (≈ 1.65 µM) | 12 (≈ 26.3 µM) | 8 (≈ 17.6 µM) | 8 (≈ 17.6 µM) | 8 (≈ 17.6 µM) | 32 (≈ 70.3 µM) | 8 (≈ 17.6 µM) | 16 (≈ 35.1 µM) | 8 (≈ 17.6 µM) | 4 (≈ 8.78 µM) | 16 (≈ 35.1 µM) | < 0.06 | 8 (≈ 17.6 µM) | 16 (≈ 35.1 µM) | 8 (≈ 17.6 µM) | < 0.06
CC(C)(O/N=C(\C(=O)N[C@@H]1C(=O)N2C(C(=O)[O-])=C(C[n+]3ccccc3)CS[C@H]12)c1csc(N)n1)C(=O)O [CEFTAZIDIME] | ≥ 64 | ≥ 64 | 4 (≈ 7.32 µM) | > 256 | ≥ 64 | ≥ 64 | ≥ 64 | > 256 | 64 (≈ 117 µM) | 64 (≈ 117 µM) | ≥ 64 | ≥ 64 | ≥ 64 | 0.09 (≈ 0.165 µM) | ≥ 64 | ≥ 64 | ≥ 64 | < 0.06
